Measurements from patent US11077100B2, “Tetrahydroquinoline derivatives as P2X7 receptor antagonists” (RaQualia Pharma Inc., priority 2017, dated 2021).
pIC50: −log10 of the molar value.

Molecular target: human P2X7 (Homo sapiens (Human), UniProt Q99572)
Assay: Human P2X7 functional assay (Ca2+ influx, Fluo-4, FDSS)
Format: cell-based
Settings: antagonistic activity with respect to the human P2X7 receptor; BzATP final concentration 80 microM
Protocol: The ability of the 5,6,7,8-tetrahydroquinoline and 6,7-dihydro-5H-cyclopenta[b]pyridine derivatives of the formula (I) to inhibit the P2X7 channel was measured by Ca^2+ influx assay and electrophysiology assay described below.
Human P2X7 Functional Assay
The functional activity of compounds was determined by measuring changes in intracellular calcium concentration using a Ca^2+-sensitive fluorescent dye, Fluo-4 (Molecular Probes). The changes in fluorescent signal were monitored by the cell imaging technology by Hamamatsu Photonics's Functional Drug Screening System (FDSS). Increases in intracellular Ca^2+ concentration were readily detected upon activation with BzATP.
HEK293 cells stably expressing human P2X7 (GenBank accession number BC011913) carrying a C-terminal FLAG tag were grown in T225 flasks, in a 5% CO2 humidified incubator to about 80% confluence. Media composition consisted of Dulbecco's Modified Eagle Medium (high glucose), 10% fetal bovine serum ([…]), 100 units/[…] Penicillin, 100 microg/mL Streptomycin and 250 microg/mL Geneticine.
1. Plate-out HEK293-human P2X7 cells (40 microL medium containing 10,000 cells per well) into poly-D-lysine coated 384-well plates (Corning) at 24 h prior to assay.
2. Incubate at 37° C. in 5% CO2.
3. Incubate the plate at 37° C. in 5% CO2 for 1 h.
5. Test compounds were prepared at 100× the test concentration in DMSO by serial dilution with Biomek-FX liquid handling instrument. 33× diluted compound solutions in assay buffer were prepared in intermediate compound plate with Biomek-NX liquid handling instrument. A further 3× dilution occurred in below steps 6 and 7.
6. Add 20 microL of 33× diluted compound solutions into each well and leave the plate for 10 min under the dark at room temperature.
7. Measure activity by FDSS as follows: • Set the assay plate on the stacker of FDSS. • Start the detection of fluorescence intensity at 540 nm by 480 nm exicitation. • After 30 seconds, add 20 microL of assay buffer containing 240 microM BzATP (final concentration 80 microM).
IC50 values for compounds of the present invention were determined from 7-point dose-response studies. Curves were generated using the average of duplicate wells for each data point. Finally, the IC50 values are calculated with the best-fit dose curve determined by XLfit (ID Business Solutions Ltd.).

human P2X7, sequence (Q99572 whole entry): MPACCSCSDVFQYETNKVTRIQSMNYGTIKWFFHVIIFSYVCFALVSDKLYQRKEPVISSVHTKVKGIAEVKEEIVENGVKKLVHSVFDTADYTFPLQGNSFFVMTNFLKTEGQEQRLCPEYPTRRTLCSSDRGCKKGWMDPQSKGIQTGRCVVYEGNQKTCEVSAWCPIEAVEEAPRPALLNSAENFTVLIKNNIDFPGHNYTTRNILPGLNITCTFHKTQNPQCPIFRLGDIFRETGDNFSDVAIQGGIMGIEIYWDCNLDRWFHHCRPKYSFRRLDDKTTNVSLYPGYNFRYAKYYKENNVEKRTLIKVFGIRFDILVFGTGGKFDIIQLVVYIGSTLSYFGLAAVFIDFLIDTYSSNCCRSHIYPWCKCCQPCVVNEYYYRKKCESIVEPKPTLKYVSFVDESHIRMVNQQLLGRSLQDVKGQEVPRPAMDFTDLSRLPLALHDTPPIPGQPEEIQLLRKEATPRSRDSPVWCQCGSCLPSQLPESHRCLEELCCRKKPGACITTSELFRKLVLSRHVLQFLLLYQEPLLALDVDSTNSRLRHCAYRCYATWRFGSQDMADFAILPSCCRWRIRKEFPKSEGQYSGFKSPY

Structure (SMILES)	pIC50
O=C(NCc1c(F)cc(Cl)cc1Cl)[C@@]1(F)CC[C@H](O)c2ncccc21 [Example 116, (5R,8S)-N-(2,4-dichloro-6-fluorobenzyl)-5-fluoro-8-hydroxy-5,6,7,8-tetrahydroquinoline-5-carboxamide]	6.00 to 6.52
O=C(NCc1c(Cl)cccc1Cl)[C@@]1(F)CC[C@@H](O)c2ncccc21 [Example 138, (5R,8R)-N-(2,6-dichlorobenzyl)-5-fluoro-8-hydroxy-5,6,7,8-tetrahydroquinoline-5-carboxamide]	6.52 to 7.00
O=C(NCc1ccc(F)cc1F)[C@@]1(F)CC[C@@H](O)c2ncccc21 [Example 140, (5R,8R)-N-(2,4-difluorobenzyl)-5-fluoro-8-hydroxy-5,6,7,8-tetrahydroquinoline-5-carboxamide]	6.00 to 6.52
O=C(NCc1ccc(F)cc1C(F)(F)F)[C@@]1(F)CC[C@@H](O)c2ncccc21 [Example 143, (5R,8R)-5-fluoro-N-(4-fluoro-2-(trifluoromethyl)benzyl)-8-hydroxy-5,6,7,8-tetrahydroquinoline-5-carboxamide]	6.00 to 6.52
O=C(NCc1c(F)cc(Cl)cc1Cl)[C@@]1(F)CC[C@@H](O)c2ncccc21 [Example 151, (5R,8R)-N-(2,4-dichloro-6-fluorobenzyl)-5-fluoro-8-hydroxy-5,6,7,8-tetrahydroquinoline-5-carboxamide]	> 7.30
O=C(NCc1ccc(Cl)cc1C(F)(F)F)[C@@]1(F)CC[C@@H](O)c2ncccc21 [Example 156, (5R,8R)-N-(4-chloro-2-(trifluoromethyl)benzyl)-5-fluoro-8-hydroxy-5,6,7,8-tetrahydroquinoline-5-carboxamide]	6.52 to 7.00
Cc1cccc(Cl)c1CNC(=O)[C@@]1(F)CC[C@@H](O)c2ncccc21 [Example 160, (5R,8R)-N-(2-chloro-6-methylbenzyl)-5-fluoro-8-hydroxy-5,6,7,8-tetrahydroquinoline-5-carboxamide]	6.52 to 7.00
O=C(NCc1c(Cl)ccc(Cl)c1Cl)[C@@]1(F)CC[C@@H](O)c2ncccc21 [Example 164, (5R,8R)-5-fluoro-8-hydroxy-N-(2,3,6-trichlorobenzyl)-5,6,7,8-tetrahydroquinoline-5-carboxamide]	6.52 to 7.00
O=C(NCc1cc(Cl)ccc1Cl)[C@]1(F)CC[C@H](O)c2ncccc21 [Example 173, (5S,8S)-N-(2,5-dichlorobenzyl)-5-fluoro-8-hydroxy-5,6,7,8-tetrahydroquinoline-5-carboxamide]	7.00 to 7.30
O=C(NCc1ccc(F)c(Cl)c1)[C@]1(F)CC[C@H](O)c2ncccc21 [Example 188, (5S,8S)-N-(3-chloro-4-fluorobenzyl)-5-fluoro-8-hydroxy-5,6,7,8-tetrahydroquinoline-5-carboxamide]	> 7.30
COc1cccc(Cl)c1CNC(=O)[C@]1(F)CC[C@H](O)c2ncccc21 [Example 198, (5S,8S)-N-(2-chloro-6-methoxybenzyl)-5-fluoro-8-hydroxy-5,6,7,8-tetrahydroquinoline-5-carboxamide]	> 7.30
O=C(NCc1cc(F)c(F)c(F)c1)[C@]1(F)CC[C@H](O)c2ncccc21 [Example 200, (5S,8S)-5-fluoro-8-hydroxy-N-(3,4,5-trifluorobenzyl)-5,6,7,8-tetrahydroquinoline-5-carboxamide]	7.00 to 7.30
O=C(NCc1ccc(F)c(F)c1)[C@]1(F)CC[C@H](O)c2ncccc21 [Example 202, (5S,8S)-N-(3,4-difluorobenzyl)-5-fluoro-8-hydroxy-5,6,7,8-tetrahydroquinoline-5-carboxamide]	7.00 to 7.30
O=C(NCc1cc(F)ccc1Cl)[C@]1(F)CC[C@H](O)c2ncccc21 [Example 204, (5S,8S)-N-(2-chloro-5-fluorobenzyl)-5-fluoro-8-hydroxy-5,6,7,8-tetrahydroquinoline-5-carboxamide]	7.00 to 7.30
O=C(NCc1ccc(OC(F)(F)F)cc1F)[C@]1(F)CC[C@H](O)c2ncccc21 [Example 207, (5S,8S)-5-fluoro-N-(2-fluoro-4-(trifluoromethoxy)benzyl)-8-hydroxy-5,6,7,8-tetrahydroquinoline-5-carboxamide]	6.52 to 7.00
O=C(NCc1cc(C(F)(F)F)ccc1Cl)[C@]1(F)CC[C@H](O)c2ncccc21 [Example 209, (5S,8S)-N-(2-chloro-5-(trifluoromethyl)benzyl)-5-fluoro-8-hydroxy-5,6,7,8-tetrahydroquinoline 5-carboxamide]	6.52 to 7.00
COc1ccc(CNC(=O)[C@]2(F)CC[C@H](O)c3ncccc32)c(C(F)(F)F)c1 [Example 211, (5S,8S)-5-fluoro-8-hydroxy-N-(4-methoxy-2-(trifluoromethyl)benzyl)-5,6,7,8-tetrahydroquinoline-5-carboxamide]	6.52 to 7.00
O=C(NCc1cc(Cl)cc(Cl)c1)[C@]1(F)CC[C@H](O)c2ncccc21 [Example 212, (5S,8S)-N-(3,5-dichlorobenzyl)-5-fluoro-8-hydroxy-5,6,7,8-tetrahydroquinoline-5-carboxamide]	6.52 to 7.00

Now from value to compound:

pIC50	Structure (SMILES)
> 7.30	C[C@@H](NC(=O)[C@]1(F)CC[C@@H](O)c2ncccc21)c1ccc(Cl)cc1Cl [Example 119, (5S-8R)-N-((R)-1-(2,4-dichlorophenyl)ethyl)-5-fluoro-8-hydroxy-5,6,7,8-tetrahydroquinoline-5-carboxamide]
5.52 to 6.00	O=C(NCc1cccc(Cl)c1Cl)[C@@]1(F)CC[C@H](O)c2ncccc21 [Example 120, (5R,8S)-N-(2,3-dichlorobenzyl)-5-fluoro-8-hydroxy-5,6,7,8-tetrahydroquinoline-5-carboxamide]
6.52 to 7.00	O=C(NCc1cc(F)c(F)cc1Cl)[C@]1(F)CC[C@@H](O)c2ncccc21 [Example 123, (5S,8R)-N-(2-chloro-4,5-difluorobenzyl)-5-fluoro-8-hydroxy-5,6,7,8,- tetrahydroqunioline-5-carboxamide]
6.52 to 7.00	O=C(NCc1c(Cl)ccc(Cl)c1Cl)[C@]1(F)CC[C@@H](O)c2ncccc21 [Example 124, (5S,8R)-5-fluoro-8-hydroxy-N-(2,3,6-trichlorobenzyl)-5,6,7,8,- tetrahydroquinoline-5-carboxamide]
6.52 to 7.00	Cc1ccc(CNC(=O)[C@]2(F)CC[C@@H](O)c3ncccc32)c(Cl)c1 [Example 125, (5S,8R)-N-(2-chloro-4-methylbenzyl)-5-fluoro-8-hydroxy-5,6,7,8-hydroquinoline-5-carboxamide]
6.52 to 7.00	O=C(NCc1ccc(Cl)cc1F)[C@@]1(F)CC[C@@H](O)c2ncccc21 [Example 145, (5R,8R)-N-(4-chloro-2-fluorobenzyl)-5-fluoro-8-hydroxy-5,6,7,8-tetrahydroquinoline-5-carboxamide]
> 7.30	O=C(NCc1c(Cl)cc(C(F)(F)F)cc1Cl)[C@@]1(F)CC[C@@H](O)c2ncccc21 [Example 147, (5R,8R)-N-(2,6-dichloro-4-(trifluoromethyl)benzyl)-5-fluoro-8-hydroxy-5,6,7,8-tetrahydroquinoline-5-carboxamide]
7.00 to 7.30	C[C@@H](NC(=O)[C@@]1(F)CC[C@@H](O)c2ncccc21)c1ccc(Cl)cc1Cl [Example 155, (5R,8R)-N-((R)-1-(2,4-dichlorophenyl)ethyl)-5-fluoro-8-hydroxy-5,6,7,8-tetrahydroquinoline-5-carboxamide]
6.52 to 7.00	O=C(NCc1cc(F)c(F)cc1Cl)[C@@]1(F)CC[C@@H](O)c2ncccc21 [Example 162, (5R,8R)-N-(2-chloro-4,5-difluorobenzyl)-5-fluoro-8-hydroxy-5,6,7,8-tetrahydroquinoline-5-carboxamide]
6.52 to 7.00	Cc1ccc(CNC(=O)[C@@]2(F)CC[C@@H](O)c3ncccc32)c(Cl)c1 [Example 166, (5R,8R)-N-(2-chloro-4-methylbenzyl)-5-fluoro-8-hydroxy-5,6,7,8-tetrahydroquinoline-5-carboxamide]
> 7.30	O=C(NCc1ncc(C(F)(F)F)cc1Cl)[C@]1(F)CC[C@H](O)c2ncccc21 [Example 194, (5S,8S)-N-((3-chloro-5-(trifluoromethyl)pyridin-2-yl)methyl)-5-fluoro-8-hydroxy-5,6,7,8-tetrahydroquinoline-5-carboxamide]
> 7.30	O=C(NCc1ccc(Cl)c(Cl)c1)[C@]1(F)CC[C@H](O)c2ncccc21 [Example 197, (5S,8S)-N-(3,4-dichlorobenzyl)-5-fluoro-8-hydroxy-5,6,7,8-tetrahydroquinoline-5-carboxamide]
6.52 to 7.00	O=C(NCc1ccc(Cl)cc1)[C@]1(F)CC[C@H](O)c2ncccc21 [Example 210, (5S,8S)-N-(4-chlorobenzyl)-5-fluoro-8-hydroxy-5,6,7,8-tetrahydroquinoline-5-carboxamide]
